Data reported in patent US20130005568A1, “SAFENED HERBICIDAL MIXTURES” (E.I. DU PONT DE NEMOURS AND COMPANY, priority 2011, published 2013).

Assays:
[1] = system: Pioneer 39K40 hybrid maize; assay: Test A: visual plant response rating, postemergence herbicide treatments alone and with Compound 1; format: in vivo, Zea mays L. spp. indentata Sturt.; conditions: in vivo
Experimental: (§1) For all of the following biological tests, plant response ratings were based on a 0-100 scale where zero is growth equivalent to that of untreated plants (no plant response) and 100 represents no additional growth occurring after herbicide treatment.
(§2) Pioneer 39K40 hybrid maize used in this test (and also Tests B and C) is particularly sensitive to herbicides that inhibit the acetohydroxy acid synthase enzyme. Herbicide mixtures were dissolved/dispersed in a non-phytotoxic liquid carrier and were sprayed postemergence to Pioneer 39K40 hybrid maize (Zea mays L. spp. indentata Sturt.) in the third collar growth stage (extended leaf height was 50-60 cm). Treated plants were grown under greenhouse conditions for two weeks before visual evaluations of plant responses were recorded.

[2] = system: Pioneer 39K40 hybrid maize; assay: Test B: visual plant response rating, postemergence herbicides with Compound 1 rate series; format: in vivo, Zea mays L. spp. indentata Sturt.; conditions: in vivo
Experimental: as §1
as §2, with “Herbicide” for “Pioneer 39K40 hybrid maize used in this test (and also Tests B and C) is particularly sensitive to herbicides that inhibit the acetohydroxy acid synthase enzyme. Herbicide”

[3] = system: Pioneer 39K40 hybrid maize; assay: Test C: visual plant response rating, postemergence acetohydroxy acid synthase-inhibiting herbicides alone and with Compound 1; format: in vivo, Zea mays L. spp. indentata Sturt.; conditions: greenhouse, two weeks, 0-100 scale
Experimental: as §1
Herbicide mixtures were dissolved/dispersed in a non-phytotoxic liquid carrier and were sprayed postemergence to Pioneer 39K40 hybrid maize (Zea mays L. spp. indentata Sturt.) in the third collar growth stage (extended leaf height was 40-60 cm). Treated plants were grown under greenhouse conditions for two weeks before visual evaluations of plant responses were recorded.

[4] = system: sunflower variety Pioneer 63N82 bred for resistance to tribenuron-methyl; assay: Test H: tribenuron-tolerant sunflower postemergence plant response rating; format: in vivo, Helianthus annuus L. var. Pioneer 63N82; conditions: 2-leaf stage, greenhouse, two weeks, 0-100 scale
Source text: as §1
Herbicide mixtures were formulated, dissolved/dispersed in water containing 0.25% non-ionic surfactant, and sprayed postemergence at the 2-leaf growth stage to a sunflower variety (Helianthus annuus L. var. Pioneer 63N82) bred for resistance to tribenuron-methyl. Treated plants were grown under greenhouse conditions for two weeks before visual evaluations of plant responses were recorded.

sugarcane = assay: Test J: sugarcane postemergence plant response rating, field conditions; format: in vivo, Saccharum officinarum L.; conditions: postemergence, field, four weeks, 0-100 scale
Experimental: as §1
(§3) Herbicide mixtures were formulated, dissolved/dispersed in water containing 0.25% non-ionic surfactant, and sprayed postemergence to sugarcane (Saccharum officinarum L.) approximately 20-40 cm tall (extended leaf height). This test was conducted under field conditions. Visual evaluations of plant responses were recorded four weeks after the plants were treated.

Surinam grass = assay: Test K: pasture grass postemergence plant response rating, field conditions; format: in vivo, Brachiaria decumbens Stapf; conditions: Surinam grass, postemergence, field, four weeks, 0-100 scale
Source text: as §1
as §3, with “the pasture grasses: Surinam grass (Brachiaria decumbens Stapf), palisade grass (Brachiaria brizantha (Hochst. ex A. Rich) Stapf) and Alexandergrass (Brachiaria plantaginea (Link) A. S. Hitchc.)” for “sugarcane (Saccharum officinarum L.)”, “10-30” for “20-40”

palisade grass = assay: as above; format: in vivo, Brachiaria brizantha (Hochst. ex A. Rich) Stapf; conditions: Palisade grass, postemergence, field, four weeks, 0-100 scale
Source text: as §1
as §3, with “the pasture grasses: Surinam grass (Brachiaria decumbens Stapf), palisade grass (Brachiaria brizantha (Hochst. ex A. Rich) Stapf) and Alexandergrass (Brachiaria plantaginea (Link) A. S. Hitchc.)” for “sugarcane (Saccharum officinarum L.)”, “10-30” for “20-40”

Alexandergrass = assay: as above; format: in vivo, Brachiaria plantaginea (Link) A. S. Hitchc.; conditions: Alexandergrass, postemergence, field, four weeks, 0-100 scale
Source text: as §1
as §3, with “the pasture grasses: Surinam grass (Brachiaria decumbens Stapf), palisade grass (Brachiaria brizantha (Hochst. ex A. Rich) Stapf) and Alexandergrass (Brachiaria plantaginea (Link) A. S. Hitchc.)” for “sugarcane (Saccharum officinarum L.)”, “10-30” for “20-40”

lambsquarters = assay: Test I: postemergence plant response rating; format: in vivo, Chenopodium album L.; conditions: lambsquarters, postemergence, greenhouse, two weeks, 0-100 scale
Source text: as §1
(§4) Herbicide mixtures were formulated, dissolved/dispersed in water containing 0.25% non-ionic surfactant, and sprayed postemergence to the crop: soybean (Glycine max (L.) Merr.) at the 2-leaf growth stage and to weeds: lambsquarters (Chenopodium album L.) and velvetleaf (Abutilon theophrasti Medik.). Weed species were 5-10 cm tall when treated. Treated plants were grown under greenhouse conditions for two weeks before visual evaluations of plant responses were recorded.

velvetleaf = assay: Test I: postemergence plant response rating; format: in vivo, Abutilon theophrasti Medik.; conditions: velvetleaf, postemergence, greenhouse, two weeks, 0-100 scale
Source text: as §1, §4

[5] = herbicide 8 g ai/ha + Compound 1 125 g ai/ha
[6] = herbicide 4 g ai/ha + Compound 1 125 g ai/ha
[7] = herbicide 30 g ai/ha + Compound 1 70 g ai/ha
[8] = herbicide 30 g ai/ha + Compound 1 140 g ai/ha

## CCS(=O)(=O)c1cccnc1S(=O)(=O)NC(=O)Nc1nc(OC)cc(OC)n1 [Rimsulfuron, rimsulfuron]
[1]
  Observed Response, Herbicide alone: 92
[2]
  Observed Response, Herbicide alone: 62

## COC(=O)c1ccccc1S(=O)(=O)NC(=O)Nc1nc(C)cc(C)n1 [Sulfometuron-methyl, sulfometuron-methyl]
[3]; [5]
  Observed Response, Herbicide mixture with Compound 1: 100
[3]; herbicide 8 g ai/ha
  Observed Response, Herbicide alone: 100
[4]; [6]
  Observed Response, Herbicide mixture with Compound 1: 7
[4]; herbicide 4 g ai/ha
  Observed Response, Herbicide alone: 27
[4]; [5]
  Observed Response, Herbicide mixture with Compound 1: 3
[4]; herbicide 8 g ai/ha
  Observed Response, Herbicide alone: 30
[4]; herbicide 16 g ai/ha + Compound 1 125 g ai/ha
  Observed Response, Herbicide mixture with Compound 1: 3
[4]; herbicide 16 g ai/ha
  Observed Response, Herbicide alone: 33
[4]; herbicide 31 g ai/ha + Compound 1 125 g ai/ha
  Observed Response, Herbicide mixture with Compound 1: 7
[4]; herbicide 31 g ai/ha
  Observed Response, Herbicide alone: 37
[4]; herbicide 62 g ai/ha + Compound 1 125 g ai/ha
  Observed Response, Herbicide mixture with Compound 1: 7
[4]; herbicide 62 g ai/ha
  Observed Response, Herbicide alone: 40
sugarcane; [7]
  Observed Response, Herbicide mixture with Compound 1: 45
sugarcane; [8]
  Observed Response, Herbicide mixture with Compound 1: 30
sugarcane; herbicide 30 g ai/ha
  Observed Response, Herbicide alone: 60
Surinam grass; [7]
  Observed Response, Herbicide mixture with Compound 1: 45
Surinam grass; [8]
  Observed Response, Herbicide mixture with Compound 1: 30
Surinam grass; herbicide 30 g ai/ha
  Observed Response, Herbicide alone: 50
Palisade grass; [7]
  Observed Response, Herbicide mixture with Compound 1: 40
Palisade grass; [8]
  Observed Response, Herbicide mixture with Compound 1: 20
Palisade grass; herbicide 30 g ai/ha
  Observed Response, Herbicide alone: 45
Alexandergrass; [7]
  Observed Response, Herbicide mixture with Compound 1: 45
Alexandergrass; [8]
  Observed Response, Herbicide mixture with Compound 1: 30
Alexandergrass; herbicide 30 g ai/ha
  Observed Response, Herbicide alone: 50

## COC(=O)c1sccc1S(=O)(=O)NC(=O)Nc1nc(C)nc(OC)n1 [Thifensulfuron-methyl, thifensulfuron-methyl]
[1]
  Observed Response, Herbicide alone: 73
[2]
  Observed Response, Herbicide alone: 45
lambsquarters; [6]
  Observed Response, Herbicide mixture with Compound 1: 99
lambsquarters; herbicide 4 g ai/ha
  Observed Response, Herbicide alone: 98
lambsquarters; [5]
  Observed Response, Herbicide mixture with Compound 1: 100
lambsquarters; herbicide 8 g ai/ha
  Observed Response, Herbicide alone: 100
velvetleaf; [6]
  Observed Response, Herbicide mixture with Compound 1: 99
velvetleaf; herbicide 4 g ai/ha
  Observed Response, Herbicide alone: 99
velvetleaf; [5]
  Observed Response, Herbicide mixture with Compound 1: 100
velvetleaf; herbicide 8 g ai/ha
  Observed Response, Herbicide alone: 100
